Assay results from patent US20110105472A1, “Diaminopyrimidines as crop protection agents” (Bayer CropScience AG, priority 2008, published 2011).
Marks after values point to notes of the source that are not given here. Blank lines part the entries; values can stand above or below the molecule they belong to.

Tests used:
[1] = logP by HPLC on reversed-phase columns (C 18), method [a], acidic range pH 2.3; type: physicochemical
[2] = tested on: Capsella bursa-pastoris (shepherd's purse); assay: Herbicidal post-emergence action (PO), CAPBP; type: in vivo; conditions: dose 1000 g/ha, rated visually after about 2 weeks
Protocol: (§1) 2. Herbicidal Post-Emergence Action (═PO)
(§2) Seeds of monocotyledonous and dicotyledonous harmful plants are placed in sandy loam, covered with soil and cultivated in a greenhouse under good growth conditions. About 2 weeks after sowing, the test plants are treated at the one-leaf stage. To this end, the compounds according to the invention, formulated as emulsion concentrates (EC), as an aqueous emulsion with a water application rate of 800 l/ha (converted), are sprayed onto the green parts of the plants. After the test plants have been kept in the greenhouse under optimum growth conditions for about 2 weeks, the effect of the preparations is rated visually in comparison to untreated controls (herbicidal effect in percent (%): 100% effect=the plants have died, 0% effect=like control plants). CAPBP=Capsella bursa-pastoris (shepherd's purse), STEME=Stellaria media (common chickweed), ABUTH=Abutilon theophrasti (velvetleaf), AMARE=Amaranthus retroflexus (redroot pigweed)

[3] = tested on: Stellaria media (common chickweed); assay: Herbicidal post-emergence action (PO), STEME; type: in vivo; conditions: dose 1000 g/ha, rated visually after about 2 weeks
Protocol: as §1, §2

[4] = logP by LC-MS, method [b], acidic range pH 2.7; type: physicochemical; conditions: pH 2.7
[5] = tested on: Abutilon theophrasti (velvetleaf); assay: Herbicidal post-emergence action (PO), ABUTH; type: in vivo; conditions: dose 1000 g/ha, rated visually after about 2 weeks
Protocol: as §1, §2

[6] = tested on: Amaranthus retroflexus (redroot pigweed); assay: Herbicidal post-emergence action (PO), AMARE; type: in vivo; conditions: dose 1000 g/ha, rated visually after about 2 weeks
Protocol: as §1, §2

physchem = type: physicochemical; conditions: pH 7.8

log p ([1]; pH 2.3): 2.74^[a]
SMILES: CC(C)c1ccc(Nc2ncc(Cl)c(NC3CCC3)n2)cc1.Cl [Compound 2-5]

log p ([1]; pH 2.3): 2.58^[a]
SMILES: CN(C)S(=O)(=O)c1ccc(Nc2ncc(Cl)c(NC3CCC3)n2)cc1.Cl [Compound 2-7]

log p ([1]; method [a], HPLC on reversed-phase C 18, acidic range pH 2.3): 1.52[a]
logP (pH2.3) ([1]; pH 2.3, values given in the preparation examples): 1.52
SMILES: NS(=O)(=O)c1cccc(Nc2ncc(Cl)c(NC3CCC3)n2)c1 [Compound 23]

chromatographic logP ([1]; pH 2.3): 3.27
chromatographic logP [4]: 3.27
SMILES: CCCOc1cccc(Nc2ncc(Br)c(NC3CCC3)n2)c1 [Compound 30, 5-Bromo-N^4-cyclobutyl-N^2-(3-propoxyphenyl)pyrimidine-2,4-diamine]

log p [4]: 2.92[b]
SMILES: CSc1cccc(Nc2ncc(Br)c(NC3CCC3)n2)c1 [Compound 44]
herbicidal effect CAPBP [2]: 80%
herbicidal effect STEME [3]: 70%

log p ([1]; pH 2.3): 2.15[a];
log p (physchem): 3.7[c]
SMILES: Fc1ccc(Nc2ncc(Cl)c(NC3CCC3)n2)cc1 [Compound 47]

log p ([1]; pH 2.3): 1.71[a];
log p (physchem): 2.74[c]
SMILES: O=C1CCCN1c1cccc(Nc2ncc(Cl)c(NC3CCC3)n2)c1 [Compound 48]
herbicidal effect AMARE [6]: 70%
herbicidal effect CAPBP [2]: 70%

log p ([1]; pH 2.3): 2.94[a];
log p (physchem): 5.82[c]
SMILES: CC1CC(C)CN(c2cccc(Nc3ncc(Cl)c(NC4CCC4)n3)c2)C1 (stereo not shown) [Compound 51]

log p [4]: 1.73[b]
SMILES: CS(=O)(=O)Nc1cccc(Nc2ncc(Br)c(NC3CCC3)n2)c1 [Compound 87]
herbicidal effect AMARE [6]: 80%
herbicidal effect STEME [3]: 70%

log p [4]: 1.54[b]
SMILES: CC(=O)Nc1cccc(Nc2ncc(Br)c(NC3CCC3)n2)c1 [Compound 96]
herbicidal effect AMARE [6]: 70%
herbicidal effect CAPBP [2]: 90%
herbicidal effect STEME [3]: 70%

log p [4]: 1.64[b]
SMILES: CC(=O)N(C)c1ccc(Nc2ncc(Cl)c(NC3CCC3)n2)cc1 [Compound 120]
herbicidal effect AMARE [6]: 90%
herbicidal effect CAPBP [2]: 70%

log p [4]: 1.51[b]
SMILES: CC(=O)Nc1cccc(Nc2ncc(Cl)c(NC3CCC3)n2)c1 [Compound 123]
herbicidal effect AMARE [6]: 100%
herbicidal effect CAPBP [2]: 80%
herbicidal effect STEME [3]: 70%

log p ([1]; pH 2.3): 1.96[a]
SMILES: O=C1CCCCCN1c1cccc(Nc2ncc(Cl)c(NC3CCC3)n2)c1 [Compound 216]

log p (physchem): 2.68[c]
SMILES: CC(C)NC(=O)c1ccc(Nc2ncc(Cl)c(NC3CCC3)n2)cc1 [Compound 248]

log p (physchem): 3.19[c]
SMILES: CCN(CC)C(=O)c1ccc(Nc2ncc(Cl)c(NC3CCC3)n2)cc1 [Compound 250]

log p (physchem): 2.49[c]
SMILES: CC(=O)N(C)c1cccc(Nc2ncc(Cl)c(NC3CCC3)n2)c1 [Compound 261]

log p (physchem): 2.39[c]
SMILES: O=C(c1cccc(Nc2ncc(Cl)c(NC3CCC3)n2)c1)N1CCOCC1 [Compound 262]

log p (physchem): 2.63[c]
SMILES: CS(=O)(=O)c1cccc(Nc2ncc(Cl)c(NC3CCC3)n2)c1 [Compound 263]

log p ([1]; pH 2.3): 2.01[a]
SMILES: CNS(=O)(=O)c1ccc(Nc2ncc(Cl)c(NC3CCC3)n2)cc1 [compound 25]

log p ([1]; pH 2.3): 2.91[a]
SMILES: CCCCNS(=O)(=O)c1ccc(Nc2ncc(Cl)c(NC3CCC3)n2)cc1 [compound 26]

log p ([1]; pH 2.3): 1.62[a]
SMILES: NS(=O)(=O)c1ccc(Nc2ncc(Cl)c(NC3CCC3)n2)cc1 [compound 27]

The next lines start with the molecule.

SMILES: CC(C)Oc1ccc(Nc2ncc(Cl)c(NC3CCC3)n2)cc1.Cl [Compound 2-6]
log p ([1]; pH 2.3): 2.21^[a]

SMILES: Cc1ccc(S(=O)(=O)O)cc1.Cc1nc(Nc2ccccc2)nc(NC2CCC2)c1Cl [Compound 2-8]
log p ([1]; pH 2.3): 1.95^[a]

SMILES: O=c1[nH]c2ccc(Nc3ncc(Br)c(NC4CCC4)n3)cc2o1 [Compound 5]
herbicidal effect CAPBP [2]: 70%
herbicidal effect STEME [3]: 70%
log p [4]: 1.59[b]

SMILES: CC(C)Oc1ccc(Nc2ncc(Cl)c(NC3CCC3)n2)cc1.Cl [Compound 36, 5-Chloro-N^4-cyclobutyl-N^2-(4-isopropoxyphenyl)pyrimidine-2,4-diamine hydrochloride]
chromatographic logP ([1]; pH 2.3): 2.21
log p [4]: 2.44[b]

SMILES: COc1cc(Nc2ncc(Br)c(NC3CCC3)n2)cc(OC)c1OC [Compound 38]
herbicidal effect ABUTH [5]: 70%
herbicidal effect AMARE [6]: 90%
log p [4]: 2.04[b]

SMILES: O=C1CCCN1c1cccc(Nc2ncc(Br)c(NC3CCC3)n2)c1 [Compound 45]
herbicidal effect AMARE [6]: 70%
herbicidal effect CAPBP [2]: 70%
herbicidal effect STEME [3]: 80%
log p [4]: 1.84[b]

SMILES: O=C1COCCN1c1ccc(Nc2ncc(Br)c(NC3CCC3)n2)cc1 [Compound 50]
herbicidal effect AMARE [6]: 70%
herbicidal effect STEME [3]: 80%
log p [4]: 1.53[b]

SMILES: CC1(Nc2nc(Nc3ccccc3)ncc2Cl)CCC1 [Compound 52, 5-Chloro-N^4-(1-methylcyclobutyl)-N^2-phenylpyrimidine-2,4-diamine]
chromatographic logP ([1]; pH 2.3): 2.1
chromatographic logP [4]: 2.1

SMILES: FC(F)(F)c1cnc(Nc2ccccc2)nc1NC1CCC1 [Compound 54, N^4-Cyclobutyl-N^2-phenyl-5-(trifluoromethyl)pyrimidine-2,4-diamine]
chromatographic logP ([1]; pH 2.3): 3.33
chromatographic logP (physchem): 3.96

SMILES: O=C1CCCN1c1cccc(Nc2ncc(C(F)(F)F)c(NC3CCC3)n2)c1 [Compound 55]
log p ([1]; pH 2.3): 2.64[a];
log p (physchem): 3.09[c]

SMILES: O=C1CCCN1c1ccc(Nc2ncc(C(F)(F)F)c(NC3CCC3)n2)cc1 [Compound 56]
log p ([1]; pH 2.3): 2.51[a];
log p (physchem): 3.01[c]

SMILES: CSc1cccc(Nc2ncc(C(F)(F)F)c(NC3CCC3)n2)c1 [Compound 57]
log p ([1]; pH 2.3): 4.05[a];
log p (physchem): 4.36[c]

SMILES: Fc1ccc(Nc2ncc(C(F)(F)F)c(NC3CCC3)n2)cc1 [Compound 58]
log p ([1]; pH 2.3): 3.5[a];
log p (physchem): 4[c]

SMILES: CN1CCN(c2cccc(Nc3ncc(Br)c(NC4CCC4)n3)c2)C1=O [Compound 59]
herbicidal effect ABUTH [5]: 80%
herbicidal effect CAPBP [2]: 70%
herbicidal effect STEME [3]: 80%
log p [4]: 1.79[b]

SMILES: CN(C)C(=O)c1ccc(Nc2ncc(Br)c(NC3CCC3)n2)cc1 [Compound 100]
herbicidal effect AMARE [6]: 70%
herbicidal effect CAPBP [2]: 70%
herbicidal effect STEME [3]: 70%
log p [4]: 1.73[b]

SMILES: CSc1cccc(Nc2ncc(Cl)c(NC3CCC3)n2)c1 [Compound 128]
herbicidal effect AMARE [6]: 90%
herbicidal effect CAPBP [2]: 80%
herbicidal effect STEME [3]: 90%
log p [4]: 2.46[b]

SMILES: CSc1ccc(Nc2ncc(Cl)c(NC3CCC3)n2)cc1 [Compound 129]
herbicidal effect CAPBP [2]: 70%
herbicidal effect STEME [3]: 70%
log p [4]: 2.33[b]

SMILES: CCOC(=O)Cc1ccc(Nc2ncc(Br)c(NC3CCC3)n2)cc1 [Compound 148]
herbicidal effect ABUTH [5]: 70%
herbicidal effect AMARE [6]: 90%
herbicidal effect CAPBP [2]: 80%
herbicidal effect STEME [3]: 70%
log p [4]: 2.3[b]

SMILES: N#CCC(=O)c1ccc(Nc2ncc(Br)c(NC3CCC3)n2)cc1 [Compound 149]
herbicidal effect AMARE [6]: 90%
herbicidal effect CAPBP [2]: 90%
herbicidal effect STEME [3]: 70%
log p [4]: 2.57[b]

SMILES: CN(C)C(=O)c1cccc(Nc2ncc(Br)c(NC3CCC3)n2)c1 [Compound 155]
herbicidal effect AMARE [6]: 70%
herbicidal effect CAPBP [2]: 80%
herbicidal effect STEME [3]: 80%
log p [4]: 1.68[b]

SMILES: O=C1CCCN1c1cc(Nc2ncc(C(F)(F)F)c(NC3CCC3)n2)ccc1F [Compound 211]
log p ([1]; pH 2.3): 2.69[a];
log p (physchem): 2.96[c]

SMILES: O=C1CCCN1c1cc(Nc2ncc(Cl)c(NC3CCC3)n2)ccc1F [Compound 212]
log p ([1]; pH 2.3): 1.75[a]

SMILES: O=C1CCCCCN1c1cccc(Nc2ncc(Br)c(NC3CCC3)n2)c1 [Compound 215]
log p ([1]; pH 2.3): 2.08[a]

SMILES: O=C1CCCCN1c1cccc(Nc2ncc(Br)c(NC3CCC3)n2)c1 [Compound 217]
log p ([1]; pH 2.3): 1.77[a]

SMILES: CC(C#N)c1ccc(Nc2ncc(Cl)c(NC3CCC3)n2)cc1 (stereo not shown) [Compound 234]
log p (physchem): 3.45[c]

SMILES: CCSc1cccc(Nc2ncc(C(F)(F)F)c(NC3CCC3)n2)c1 [Compound 235]
log p (physchem): 4.8[c]

SMILES: Ic1cnc(Nc2ccccc2)nc1NC1CCC1 [Compound 236]
log p ([1]; pH 2.3): 2.19[a]

SMILES: Clc1ncc(Cl)c(NC2CCC2)n1 [Compound V-1, 2,5-Dichloro-N-cyclobutylpyrimidine-4-amine]
chromatographic logP ([1]; pH 2.3): 2.62

SMILES: Clc1ncc(Br)c(NC2CCC2)n1 [Compound V-2, 5-Bromo-2-chloro-N-cyclobutylpyrimidine-4-amine]
chromatographic logP ([1]; pH 2.3): 2.87

SMILES: Clc1ncc(I)c(NC2CCC2)n1 [Compound V-3, 2-Chloro-N-cyclobutyl-5-iodopyrimidine-4-amine]
chromatographic logP ([1]; pH 2.3): 3.08

SMILES: FC(F)(F)c1cnc(Cl)nc1NC1CCC1 [Compound V-4, 2-Chloro-N-cyclobutyl-5-trifluoromethylpyrimidine-4-amine]
chromatographic logP ([1]; pH 2.3): 3.2

SMILES: NS(=O)(=O)c1cc(Nc2ncc(Cl)c(NC3CCC3)n2)cc(C(F)(F)F)c1 [compound 24]
log p ([1]; pH 2.3): 2.7[a]

SMILES: CC(C)(C)OC(=O)N1CCN(c2ccc(Nc3ncc(Cl)c(NC4CCC4)n3)cc2)CC1 [compound 28]
log p ([1]; pH 2.3): 2.73[a]

SMILES: CN(c1nc(Nc2ccccc2)ncc1Cl)C1CCC1 [compound 245]
log p ([1]; pH 2.3): 3.32[a]
